Values of other authors, collected in US20170049836A1, “COMPOSITIONS COMPRISING BOTANICALS, INCLUDING THE USE AND METHOD OF USE THEREOF” (FEM MED FORMULAS LIMITED PARTNERSHIP, priority 2010, published 2017).
Where two headings read alike, the source gives them in different places.

How the values were obtained:
[1] = system: estrogen receptor-positive breast cancer cells
[2] = system: ratio of 2-OHE to 16-αOHE

| SMILES | effect on cell growth / proliferation [1] | women with sustained increase in ratio of 2-OHE to 16-αOHE ([2]; 17 of 20 women, 200 or 400 mg/day) [%] | average increase in 2-OHE:16-αOHE ratio ([2]; 20 women, 400 mg daily) [%] | increase in 2-OHE:16-αOHE ratio, overall ([2]; 200-400 mg, regular consumption, vast majority of women) | average increase in ratio of 2-OHE to 16-αOHE ([2]; 200 or 400 mg/day, over the course of the trial) [%] | change in 2-OHE:16-αOHE ratio ([2]; all 20 women, 300 or 400 mg, 4 weeks) | average increase in 2-OHE:16-αOHE ratio ([2]; non-obese women, same trial) [%] | average increase in 2-OHE:16-αOHE ratio ([2]; obese women (four out of five), two-month period) [%] |
| --- | --- | --- | --- | --- | --- | --- | --- | --- |
| C[C@]12CC[C@@H]3c4cc(O)c(O)cc4CC[C@H]3[C@@H]1CCC2=O [2-OHE, 2-hydroxyestrone] | no effect on cell growth |  |  |  |  |  |  |  |
| C[C@]12CC[C@@H]3c4ccc(O)cc4CC[C@H]3[C@@H]1C[C@@H](O)C2=O [16-αOHE, 16-αhydrxyestrone] | stimulates proliferation |  |  |  |  |  |  |  |
| OCc1c[nH]c2ccccc12 [I3C, Indole-3-carbinol] |  | 85 | 65 | approx. 60% | 44 | significantly increased | 38 | 93 |
